Measurements from US20050107465A1, “Composition for treating inflammatory bowel disease” (priority 2003, published 2005).
“Also recorded” adds a separate entry of the source.

System: MAdCAM-1 expression in murine colon microvessel endothelial cells
Test: Western blot assay for TNF-α induced MAdCAM-1 expression in murine colon microvessel endothelial cells
Type: cell-based
Settings: EC monolayer pre-treated with test agent, then TNF-α 20 ng/ml for 24 hours, western blot densitometry (FIG. 2)
Procedure: A line of murine colon microvessel endothelial cells was developed for use as an in vitro model of colon inflammatory adhesion molecule expression in IBD. Immortomouse mice were used as tissue sources for these studies. Colon segments were sterilely removed and treated with collagenase (0.2%, 45 min) and cultured in d-valine MEM with IFN-g (10 U/ml) with 2% FCS and non-essential amino acids and vitamins. These cells were cultured on gelatin and were maintained at 37 C. for 24 hours prior to exposure to treatment protocols. In treatments, cells cultured on 24 well plates were incubated in either medium, or medium containing antioxidant or antioxidant admixture ± vitamin E TPGS for 24-48 hour prior to the administration of inflammatory cytokine (TNF-α, 20 ng/ml). At 24 hours combined treatments, monolayers were evaluated for MAdCAM-1 by standard western blotting.
EC cells developed as above were cultured in 2% fetal calf serum, with 50 U/ml interferon-gamma, d-valine supplemented MEM, 1% penicillin/streptomycin and 1 % non-essential amino acids using tissue culture were pre-coated with 1 % gelatin. Adhesion molecule expression was measured in these cells by switching cells to medium without interferon, culturing for 48 hours and then pre-treating cells with test agents for 24 hours prior to exposure to TNF-α for an additional 24 hours. MAdCAM-1 expression was measured using standard western blotting procedures described above. One hundred μg of protein was loaded per lane in non-denaturing sample buffer (w/o mercaptoethanol) and electrophoresed, and subsequently transferred to nitrocellulose. After blocking (5% milk, 2 h), blots were incubated in MAdCAM-1 antibody (10 ug/ml) for 12 hours and reacted by enhanced chemiluminescence (ECL). Gels were analyzed by densitometric analysis by scanning x-ray replicas of the exposed blots.
A murine colon microvessel endothelial cell line (EC monolayer) was developed as described above. Cytokine induced MAdCAM-1 expression in these cells was determined via Western Blot assay described above. An initial experiment evaluated the ability of gamma-tocopherol alone or formulated with vitamin E TPGS to block cytokine induction of MAdCAM-1 in this cell line is shown in FIG. 2.

Row | Compound | effect on cytokine induced MAdCAM-1 expression (in words) | effect on cytokine induced MAdCAM-1 expression (in words) (listed as coenzyme Q10) | decrease in MAdCAM-1 expression | effect on cytokine induced MAdCAM-1 expression (in words) (listed as vitamin E TGPS)
1 | COC1=C(OC)C(=O)C(C/C=C(\C)CC/C=C(\C)CC/C=C(\C)CC/C=C(\C)CC/C=C(\C)CC/C=C(\C)CC/C=C(\C)CC/C=C(\C)CC/C=C(\C)CCC=C(C)C)=C(C)C1=O [Coenzyme Q10] | less beneficial than alpha-tocopherol therapy | relatively minor effect |  | 
2 | Cc1c(C)c2c(c(C)c1O)CC[C@@](C)(CCC[C@H](C)CCC[C@H](C)CCCC(C)C)O2 [alpha-tocopherol] | relatively minor effect; also recorded: significantly less effective than gamma-tocopherol alone |  |  | 
3 | Cc1c(O)cc2c(c1C)O[C@](C)(CCC[C@H](C)CCC[C@H](C)CCCC(C)C)CC2 [gamma-tocopherol] | significantly decrease |  | at least 50% | 
4 | vitamin E TPGS | relatively small effect; also recorded: only a slight decrease |  |  | relatively minor effect
